Source: patent publication US4568685A, “N-[(1H-1,2,4-Triazol-1-yl)alkyl]-arylamides” (American Cyanamid Company, priority 1984, dated 1986)
Structures can show the parent of a compound that is named as a salt.

System: spontaneously hypertensive rats
Assay: Hypotensive activity in spontaneously hypertensive rats (mean arterial blood pressure)
Format: in vivo, spontaneously hypertensive rats of the Okamoto strain
Details: gavage, about 100 mg/kg or less, two doses 24 hours apart, measured at about 28 hours; average MABP of the SHR 170 ±1.5 mm Hg; number of rats in parentheses
Method: Hypotensive Activity in Spontaneously Hypertensive Rats
The novel compounds of the present invention are active hypotensive agents and were tested for hypotensive activity by the method of P. S. Chan and D. Poorvin, Clinical and Experimental Hypertension, 1 (6), 817-830 (1979). Male, 16 week old, spontaneously hypertensive rats of the Okamoto strain, from Taconic Farms, Germantown, N.Y., having an average mean arterial blood pressure of 170 ±1.5 mm of mercury are used in the test. One to 3 rats are used per test compound. A rat is dosed by gavage with a test compound, suspended in approximately 2% pre-boiled starch at a concentration of about 50 mg/ml, at a dose of about 100 mg/kg of body weight or less, with approximately 0.9% sodium chloride loading at a dose of about 25 ml/kg of body weight. A second identical dose of the test compound, without sodium chloride loading, is given about 24 hours later. At about 28 hours after the initial dose the mean arterial blood pressure is measured by the method of Chan and Poorvin vide supra. The procedure is repeated in a second and third rat when necessary.

| SMILES | MABP (mean arterial blood pressure) |
| --- | --- |
| O=C1c2ccccc2C(=O)N1CCCCn1cncn1 [2-[4-(1H-1,2,4-triazol-1-yl)butyl]-1H-isoindol-1,3(2H)-dione] | 119 mm Hg |
| O=C(NCCCCn1cncn1)c1ccc(Cl)c(Cl)c1 [Example 5, 3,4-Dichloro-N-[4-(1H-1,2,4-triazol-1-yl)butyl]benzamide] | 141 mm Hg |
| O=C(NCCCCn1cncn1)c1ccccc1-c1ccccc1 [Example 6, N--[4-(1H--1,2,4-triazol-1-yl)butyl] [1,1'-biphenyl]-2-carboxamide, fumarate] | 145 mm Hg |
| O=C(NCCCCn1cncn1)c1ccc(Br)cc1 [Example 8, 4-bromo-N--[4-(1H--1,2,4-triazol-1-yl)butyl]benzamide] | 137 mm Hg |
| O=C(NCCCn1cncn1)c1ccc(Cl)c(Cl)c1 [Example 12, 3,4-Dichloro-N-[3-(1H-1,2,4-triazol-1-yl)propyl]benzamide] | 150 mm Hg |
| CC(C)(C)c1ccc(C(=O)NCCCn2cncn2)cc1 [Example 13, 4-(1,1-dimethylethyl)-N--[3-(1H--1,2,4-triazol-1-yl)propyl]benzamide] | 123 mm Hg |
| N#Cc1ccc(C(=O)NCCCn2cncn2)cc1 [Example 19, 4-cyano-N--[3-(1H--1,2,4-triazol-1-yl)propyl]benzamide] | 119 mm Hg |
| Cc1ccc(C(=O)NCCCn2cncn2)cc1 [Example 21, 4-methyl-N--[3-(1H--1,2,4-triazol-1-yl)propyl]benzamide] | 145 mm Hg |
| O=C(NCCCn1cncn1)c1ccc(Br)cc1 [Example 23, 4-bromo-N--[3-(1H--1,2,4-triazol-1-yl)propyl]benzamide] | 147 mm Hg |
| O=C(NCCCn1cncn1)c1ccccc1 [Example 24, N--[3-(1H--1,2,4-triazol-1-yl)propyl]benzamide] | 124 mm Hg |
| O=C(NCCCn1cncn1)c1ccc(I)cc1 [Example 27, 4-Iodo-N-[3-(1H-1,2,4-triazol-1-yl)propyl]benzamide] | 128 mm Hg |
| O=C(C=Cc1ccc(Cl)cc1)NCCCn1cncn1 [Example 29, 3-(4-chlorophenyl)-N--[3-(1H--1,2,4-triazol-1-yl)propyl]-2-propenamide] | 137 mm Hg |
| CS(=O)(=O)c1ccc(C(=O)NCCCn2cncn2)cc1 [Example 32, 4-(methylsulfonyl)-N--[3-(1H--1,2,4-triazol-1-yl)propyl]benzamide] | 110 mm Hg |
| CN(C)c1ccc(C(=O)NCCCn2cncn2)cc1 [Example 37, 4-(dimethylamino)-N--[3-(1H--1,2,4-triazol-1-yl)propyl]benzamide] | 117 mm Hg |
| O=C(Cc1cccc2ccccc12)NCCCCn1cncn1 [N--[4-(1H--1,2,4-triazol-1-yl)butyl]-1-naphthalene acetamide, fumarate] | 134 mm Hg |
